We go through 22 compounds from patent US12624034B2, “Non-covalent modifiers of AKT1 and uses thereof” (Terremoto Biosciences, Inc., priority 2023, dated 2026).

Like-named read-outs stand apart in the source and are kept apart here.

Assay [1] deals with LAPC4 prostate cancer cells, which express the AKT1 E17K allele. As to the kind of experiment: Antiproliferative effects in LAPC4 cells (CellTiter Glo, 72 h). In kind it is cell-based. The settings on record: read-out: LAPC4 proliferation IC50. The protocol: Antiproliferative Effects in LAPC4 Cells.
LAPC4 prostate cancer cells (Klein, K. A. et al. Nat Med 1997, 3, 402-408), which express the AKT1 E17K allele, were grown in IMDM media (Hyclone) supplemented with 12% FBS+1% P/S. To assess compound effects on growth, 1,000 cells/well were seeded in 384 well assay plates, incubated with compound dilutions dissolved in DMSO. After 72 h, intracellular ATP content was assessed with CellTiter Glo reagent (Promega) according to the manufacturer's instructions. IC50 values were calculated by fitting luminescence values to a log(inhibitor) vs. response Hill equation.

The target of the next assay is T1, AKT1 E17K (Homo sapiens, UniProt P31749, E17K).
T1 construct: expressed in transfected cells; host or cells: HEK293
T1 sequence (P31749 whole entry E17K): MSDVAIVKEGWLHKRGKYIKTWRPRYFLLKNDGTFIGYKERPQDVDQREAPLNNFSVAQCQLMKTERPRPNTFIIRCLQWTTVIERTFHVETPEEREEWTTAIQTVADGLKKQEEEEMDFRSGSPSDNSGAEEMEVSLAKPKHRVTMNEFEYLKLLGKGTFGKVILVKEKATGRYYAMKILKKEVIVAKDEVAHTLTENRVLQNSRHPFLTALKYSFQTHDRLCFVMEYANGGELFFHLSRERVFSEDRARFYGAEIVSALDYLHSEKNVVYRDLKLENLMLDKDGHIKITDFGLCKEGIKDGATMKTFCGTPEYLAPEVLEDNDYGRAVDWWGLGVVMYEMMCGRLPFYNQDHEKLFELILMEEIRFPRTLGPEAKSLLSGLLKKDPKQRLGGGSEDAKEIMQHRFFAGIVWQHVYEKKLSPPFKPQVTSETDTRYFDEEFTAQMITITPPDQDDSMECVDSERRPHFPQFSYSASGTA
The assay can be described thus: Live cell AKT1 E17K target engagement by NanoBRET competitive probe displacement in HEK293 cells. The assay is classed as binding. The settings on record: NanoBRET live cell target engagement, HEK293 cells, 2 h at 37° C. In outline:
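Transfect HEK293 overnight with kinase-NanoLuc fusion plasmid; add compound series and ~EC50 fluorescent ATP-competitive tracer; incubate 2 h, 37° C; add luciferase substrate and extracellular inhibitor; read 460/600 nm; IC50 by Hill fit of BRET ratio.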

Another assay addresses T2, AKT1 WT (Homo sapiens, UniProt P31749).
T2 construct: expressed in transfected cells; host or cells: HEK293
As to the kind of experiment: Live cell AKT1 WT target engagement by NanoBRET competitive probe displacement in HEK293 cells. In kind it is binding. As to conditions: NanoBRET live cell target engagement, HEK293 cells, 2 h at 37° C.; read-out: AKT1 WT IC50. (In general: BRET reads energy transfer from a luciferase to a nearby fluorophore.)

The next assay concerns the target T3, AKT2 (Homo sapiens, UniProt P31751).
T3 construct: expressed in transfected cells; host or cells: HEK293
As to the kind of experiment: Live cell AKT2 target engagement by NanoBRET competitive probe displacement in HEK293 cells. In kind it is binding. As to conditions: NanoBRET live cell target engagement, HEK293 cells, 2 h at 37° C.; read-out: AKT2 IC50.

T3 sequence (P31751 whole entry): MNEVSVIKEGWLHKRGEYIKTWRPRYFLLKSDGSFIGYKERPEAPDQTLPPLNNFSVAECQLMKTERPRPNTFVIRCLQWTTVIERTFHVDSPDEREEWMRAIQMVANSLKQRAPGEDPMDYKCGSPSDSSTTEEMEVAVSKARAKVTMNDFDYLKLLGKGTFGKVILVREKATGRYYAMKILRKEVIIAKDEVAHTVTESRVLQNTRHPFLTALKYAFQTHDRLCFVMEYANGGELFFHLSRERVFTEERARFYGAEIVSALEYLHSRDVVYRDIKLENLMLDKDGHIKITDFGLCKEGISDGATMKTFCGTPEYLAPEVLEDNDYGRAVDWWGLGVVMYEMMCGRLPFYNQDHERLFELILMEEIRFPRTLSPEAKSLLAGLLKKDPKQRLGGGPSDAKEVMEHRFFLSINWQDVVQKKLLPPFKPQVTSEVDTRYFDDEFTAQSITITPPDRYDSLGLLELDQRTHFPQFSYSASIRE
T2 sequence (P31749 whole entry): as the sequence (P31749 whole entry E17K) above, with K17E counted along it

For the compound `Nc1ncccc1-c1nc2ccc(-n3cccn3)nc2n1-c1ccc2c(c1)CC[C@@H]2NC1CCN(C(=O)c2ccncc2)CC1` [Compound 360], the IC50 in assay [1] (Homo sapiens, LAPC4, 72 h) was over 10000 nM; at AKT1 E17K it was over 1000 nM; at AKT1 WT, 483 nM; on AKT2, 8140 nM.

With `Cn1ncc2cc(C(=O)N[C@H]3CCc4cc(-n5c(-c6cccnc6N)nc6ccc(-n7cccn7)nc65)ccc43)cnc21` [Compound 28, (S)—N-(5-(2-(2-aminopyridin-3-yl)-5-(1H-pyrazol-1-yl)-3H-imidazo[4,5-b]pyridin-3-yl)-2,3-dihydro-1H-inden-1-yl)-1-methyl-1H-pyrazolo[3,4-b]pyridine-5-carboxamide], the IC50 in assay [1] (Homo sapiens, LAPC4, 72 h) amounted to 225 nM; on AKT1 E17K, 12.1 nM; at AKT1 WT it was 2.53 nM; on AKT2 it was 6.6 nM.

For `Nc1ncccc1-c1nc2ccc(-n3cccn3)nc2n1-c1ccc2c(c1)CC[C@@H]2NC(=O)Cc1ccncc1` [Compound 49, N-[(1S)-5-[2-(2-aminopyridin-3-yl)-5-(pyrazol-1-yl)imidazo[4,5-b]pyridin-3-yl]-2,3-dihydro-1H-inden-1-yl]-2-(pyridin-4-yl)acetamide], the IC50 is over 10000 nM in assay [1] (Homo sapiens, LAPC4, 72 h); over 1000 nM on AKT1 E17K; 199 nM at AKT1 WT; 2840 nM at AKT2.

Consider `COc1nccc(C(=O)N[C@H]2CCc3cc(-n4c(-c5cccnc5N)nc5ccc(-n6cccn6)nc54)ccc32)c1C` [Compound 284], for which the IC50 was 1070 nM in assay [1] (Homo sapiens, LAPC4, 72 h); 143 nM at AKT1 E17K; 5.1 nM at AKT1 WT; 10.5 nM on AKT2.

Turning to `Nc1ncccc1-c1nc2ccc(-n3cccn3)nc2n1-c1ccc2c(c1)CC[C@@H]2NC(=O)c1cccnc1` [Compound 34, N-[(1S)-5-[2-(2-aminopyridin-3-yl)-5-(pyrazol-1-yl)imidazo[4,5-b]pyridin-3-yl]-2,3-dihydro-1H-inden-1-yl]pyridine-3-carboxamide], the IC50 worked out at 555 nM in assay [1] (Homo sapiens, LAPC4, 72 h); 24.1 nM at AKT1 E17K; 6.27 nM on AKT1 WT; 64 nM on AKT2.

As to `Cc1ccncc1C(=O)N[C@H]1CCc2cc(-n3c(-c4cccnc4N)nc4ccc(-n5cccn5)nc43)ccc21` [Compound 31, (S)—N-(5-(2-(2-aminopyridin-3-yl)-5-(1H-pyrazol-1-yl)-3H-imidazo[4,5-b]pyridin-3-yl)-2,3-dihydro-1H-inden-1-yl)-4-methylnicotinamide], the IC50 in assay [1] (Homo sapiens, LAPC4, 72 h) worked out at 7880 nM; on AKT1 E17K it was 366 nM; on AKT1 WT, 33.9 nM; on AKT2, 470 nM.

`COc1ccc(C(=O)N[C@H]2CCc3cc(-n4c(-c5cccnc5N)nc5ccc(-n6cccn6)nc54)ccc32)cc1` [Compound 12, (S)—N-(5-(2-(2-aminopyridin-3-yl)-5-(1H-pyrazol-1-yl)-3H-imidazo[4,5-b]pyridin-3-yl)-2,3-dihydro-1H-inden-1-yl)-4-methoxybenzamide]: the IC50 in assay [1] (Homo sapiens, LAPC4, 72 h) amounted to 740 nM; at AKT1 E17K, 10.5 nM; at AKT1 WT, 7.56 nM; on AKT2, 38.1 nM.

`Nc1ncccc1-c1nc2ccc(-n3cccn3)nc2n1-c1ccc2c(c1)CC[C@@H]2NC(=O)COc1ccon1` [Compound 5, (S)—N-(5-(2-(2-aminopyridin-3-yl)-5-(1H-pyrazol-1-yl)-3H-imidazo[4,5-b]pyridin-3-yl)-2,3-dihydro-1H-inden-1-yl)-2-(isoxazol-3-yloxy)acetamide]: the IC50 is 9300 nM in assay [1] (Homo sapiens, LAPC4, 72 h); over 1000 nM at AKT1 E17K; 129 nM on AKT1 WT; 1410 nM on AKT2.

Regarding `Nc1ncccc1-c1nc2ccc(-n3cccn3)nc2n1-c1ccc2c(c1)CC[C@@H]2NC(=O)c1ccc2oncc2c1` [Compound 20, (S)—N-(5-(2-(2-aminopyridin-3-yl)-5-(1H-pyrazol-1-yl)-3H-imidazo[4,5-b]pyridin-3-yl)-2,3-dihydro-1H-inden-1-yl)benzo[d]isoxazole-5-carboxamide], the IC50 in assay [1] (Homo sapiens, LAPC4, 72 h) worked out at 8490 nM; at AKT1 E17K, 137 nM; on AKT1 WT it was 126 nM; at AKT2, 713 nM.

On to `Nc1ncccc1-c1nc2ccc(-n3nccn3)nc2n1-c1ccc2c(c1)CC[C@@H]2NC(=O)c1cccnc1` [Compound 58, (S)—N-(5-(2-(2-aminopyridin-3-yl)-5-(2H-1,2,3-triazol-2-yl)-3H-imidazo[4,5-b]pyridin-3-yl)-2,3-dihydro-1H-inden-1-yl)nicotinamide], for which the IC50 in assay [1] (Homo sapiens, LAPC4, 72 h) came out at 1900 nM; at AKT1 E17K, 157 nM; at AKT1 WT it was 30.7 nM; at AKT2 it was 2040 nM.

As to `Nc1ncccc1-c1nc2ccc(-n3cccn3)nc2n1-c1ccc2c(c1)CC[C@@H]2NC(=O)C1COC1` [Compound 15, (S)—N-(5-(2-(2-aminopyridin-3-yl)-5-(1H-pyrazol-1-yl)-3H-imidazo[4,5-b]pyridin-3-yl)-2,3-dihydro-1H-inden-1-yl)oxetane-3-carboxamide], the IC50 in assay [1] (Homo sapiens, LAPC4, 72 h) was over 10000 nM; at AKT1 E17K it was over 1000 nM; at AKT1 WT, 215 nM; at AKT2, 4030 nM.

Consider `Cc1nc(C(F)F)ccc1C(=O)N[C@H]1CCc2cc(-n3c(-c4cccnc4N)nc4ccc(-n5nccn5)nc43)ccc21` [Compound 392], for which the IC50 in assay [1] (Homo sapiens, LAPC4, 72 h) was over 10000 nM; on AKT1 E17K, over 1000 nM; on AKT1 WT, 41.3 nM; on AKT2, 5530 nM.

Take `Nc1ncccc1-c1nc2ccc(-n3cccn3)nc2n1-c1ccc2c(c1)CC[C@@H]2NC(=O)c1ccnc2c1CCCO2` [Compound 361]: the IC50 in assay [1] (Homo sapiens, LAPC4, 72 h) was 4290 nM; on AKT1 E17K it was 486 nM; on AKT1 WT, 24.7 nM; on AKT2 it was 411 nM.

As to `Nc1ncccc1-c1nc2ccc(-n3nccn3)nc2n1-c1ccc2c(c1)CC(F)[C@@H]2NC(=O)c1ccc(C(F)F)nc1` (stereo partly shown) [Compound 350], the IC50 is 885 nM in assay [1], 94.4 nM on AKT1 E17K, 11.5 nM on AKT1 WT and 423 nM at AKT2.

Consider `Cn1c(C(=O)N[C@H]2CCc3cc(-n4c(-c5cccnc5N)nc5ccc(-n6cccn6)nc54)ccc32)cc2ccccc2c1=O` [Compound 8, N—{(S)-5-[2-(2-amino-3-pyridyl)-5-(1-pyrazolyl)-3H-1,3,4-triazainden-3-yl]-1-indanyl}-2-methyl-1-oxo-1,2-dihydro-3-isoquinolinecarboxamide], for which the IC50 in assay [1] (Homo sapiens, LAPC4, 72 h) is 523 nM; at AKT1 E17K, 10.8 nM; at AKT1 WT it was 2.97 nM; at AKT2, 55.8 nM.

For `Nc1ncccc1-c1nc2ccc(-n3cccn3)nc2n1-c1ccc2c(c1)CC[C@@H]2NC(=O)c1ccnc2occc12` [Compound 282], the IC50 was determined as 1310 nM in assay [1] (Homo sapiens, LAPC4, 72 h); 84.2 nM on AKT1 E17K; 5.86 nM at AKT1 WT; 68.9 nM at AKT2.

On to `Nc1ncccc1-c1nc2ccc(-n3cccn3)nc2n1-c1ccc2c(c1)CC[C@@H]2NC1CCN(C(=O)c2ccccn2)CC1` [Compound 358], for which the IC50 is 7530 nM in assay [1] (Homo sapiens, LAPC4, 72 h); over 1000 nM on AKT1 E17K; 208 nM on AKT1 WT; 4640 nM on AKT2.

As for `Nc1ncccc1-c1nc2ccc(-n3cccn3)nc2n1-c1ccc2c(c1)CC[C@@H]2NC(=O)c1cnc(C(F)F)cn1` [Compound 322], the IC50 in assay [1] (Homo sapiens, LAPC4, 72 h) turned out to be 2550 nM; at AKT1 E17K it was 274 nM; at AKT1 WT it was 63.5 nM; on AKT2 it was 1330 nM.

With `Cc1ncccc1C(=O)N[C@H]1CCc2cc(-n3c(-c4cccnc4N)nc4ccc(-n5cccn5)nc43)ccc21` [Compound 29, (S)—N-(5-(2-(2-aminopyridin-3-yl)-5-(1H-pyrazol-1-yl)-3H-imidazo[4,5-b]pyridin-3-yl)-2,3-dihydro-1H-inden-1-yl)-2-methylnicotinamide], the IC50 in assay [1] (Homo sapiens, LAPC4, 72 h) was 3650 nM; at AKT1 E17K it was 78.6 nM; at AKT1 WT, 15.9 nM; on AKT2 it was 153 nM.

With `Nc1ncccc1-c1nc2ccc(-n3cccn3)nc2n1-c1ccc2c(c1)CC[C@@H]2NC(=O)c1ccnc2c1CCO2` [Compound 225], the IC50 in assay [1] (Homo sapiens, LAPC4, 72 h) was determined as 8430 nM; at AKT1 E17K, 408 nM; at AKT1 WT, 11.3 nM; on AKT2, 343 nM.

As to `COc1cncc(C(=O)N[C@H]2CCc3cc(-n4c(-c5cccnc5N)nc5ccc(-n6cccn6)nc54)ccc32)c1` [Compound 21, (S)—N-(5-(2-(2-aminopyridin-3-yl)-5-(1H-pyrazol-1-yl)-3H-imidazo[4,5-b]pyridin-3-yl)-2,3-dihydro-1H-inden-1-yl)-5-methoxynicotinamide], the IC50 was 1050 nM in assay [1] (Homo sapiens, LAPC4, 72 h); 20.9 nM on AKT1 E17K; 4.46 nM at AKT1 WT; 30.2 nM on AKT2.

With `Cn1ccc(C(=O)N[C@H]2CCc3cc(-n4c(-c5cccnc5N)nc5ccc(-n6cccn6)nc54)ccc32)n1` [Compound 13, (S)—N-(5-(2-(2-aminopyridin-3-yl)-5-(1H-pyrazol-1-yl)-3H-imidazo[4,5-b]pyridin-3-yl)-2,3-dihydro-1H-inden-1-yl)-1-methyl-1H-pyrazole-3-carboxamide], the IC50 worked out at 3480 nM in assay [1] (Homo sapiens, LAPC4, 72 h); 329 nM on AKT1 E17K; 49.4 nM on AKT1 WT; 1270 nM on AKT2.
